# Source: patent US10285988B2, “Compounds for treatment of fibrosis diseases” (CUREGENIX, INC., priority 2013, dated 2019)
# Tested on: WNT pathway
# Assay: WNT pathway reporter gene assay (NIH3T3 TCF-Luc cells co-cultured with 293 WNT3a cells)
# Format: cell-based
# Conditions: Mus musculus, co-culture 16 hours, luciferase luminescence reduced by 50%
# Procedure: Materials and Methods: NIH3T3 mouse fibroblast cells (American Type Culture Collection, Manassas, Va.) were transfected with a plasmid containing a luciferase gene driven by 5 copies of TCF elements. Stale cells selected with 1 μg/mL of Zeocin (Gibco/Invitrogen, Carlsbad, Calif.) are cultured in Dulbecco's modified Eagle's medium (Invitrogen, Carlsbad, Calif.) supplemented with 10% FBS (Invitrogen), 50 unit/mL penicillin and 50 μg/mL of streptomycin (Invitrogen) at 37° C. with 5% CO2 in air atmosphere.
# After 16 hours, the firefly luciferase activities are measured with the Steady-Glo™ Luciferase Assay System (Promega). The cells were treated with different concentrations of compounds of this invention during the co-culture. […] To normalize for cell quantity and viability, CellTiter Glo assay is next performed in a duplicate plate.
row,Compound,IC50 [nM]
1,"Cc1cc(-c2ccc(CNc3nccc4cc(-c5ccnc(C)c5)ncc34)cc2)ccn1 [Compound 1, N-(4-(2-methylpyridin-4-yl)benzyl)-6-(2-methylpyridin-4-yl)-2,7-naphthyridin-1-amine]",< 3
2,Cc1cc(-c2cc3ccnc(NCc4ccc(-c5ccnc(F)c5)c(F)c4)c3cn2)ccn1 [Compound 28],< 3
3,"Cc1cc(-c2cc3ccnc(NCc4ccc(-c5ccnc(C)c5)c(C)c4)c3cn2)ccn1 [Compound 2, N-(3-methyl-4-(2-methylpyridin-4-yl)benzyl)-6-(2-methylpyridin-4-yl)-2,7-naphthyridin-1-amine]",< 3

# Continued, values first:
row,IC50 [nM],Compound
1,< 3,Cc1cc(-c2ncc(CNc3nccc4cc(-c5cnccn5)ccc34)cc2C)ccn1 [Compound 70]
2,< 3,Cc1cc(-c2ccc(CNc3nccc4cc(-c5cnccn5)ncc34)cc2)ccn1 [Compound 35]
